Measured values taken from patent US20240269139A1, “COMPOUNDS FOR TARGETED PROTEIN DEGRADATION OF KINASES” (DANA-FARBER CANCER INSTITUTE, INC., priority 2020, published 2024).
Like-named read-outs stand apart in the source and are kept apart here.

Tests used:
Type in all cases: cell-based
[1] = target: protein kinases (human kinome) (Homo sapiens, UniProt Q8TF76); conditions: experiment wp137
[2] = target: protein kinases (human kinome) (Homo sapiens, UniProt P51957); conditions: experiment wp146
[3] = target: protein kinases (human kinome) (Homo sapiens, UniProt P45983); conditions: for logFC MAPK8 (P45983): Experiment wp152
[4] = target: protein kinases (human kinome) (Homo sapiens, UniProt Q8TEA7); conditions: experiment wp056
[5] = target: T1, protein kinases (human kinome) (Homo sapiens, UniProt Q96S38); conditions: for logFC RPS6KC1 (Q96S38): direction of change down; for logFC: RPS6KC1 (Q96S38)
T1 sequence (Q96S38 1-1066): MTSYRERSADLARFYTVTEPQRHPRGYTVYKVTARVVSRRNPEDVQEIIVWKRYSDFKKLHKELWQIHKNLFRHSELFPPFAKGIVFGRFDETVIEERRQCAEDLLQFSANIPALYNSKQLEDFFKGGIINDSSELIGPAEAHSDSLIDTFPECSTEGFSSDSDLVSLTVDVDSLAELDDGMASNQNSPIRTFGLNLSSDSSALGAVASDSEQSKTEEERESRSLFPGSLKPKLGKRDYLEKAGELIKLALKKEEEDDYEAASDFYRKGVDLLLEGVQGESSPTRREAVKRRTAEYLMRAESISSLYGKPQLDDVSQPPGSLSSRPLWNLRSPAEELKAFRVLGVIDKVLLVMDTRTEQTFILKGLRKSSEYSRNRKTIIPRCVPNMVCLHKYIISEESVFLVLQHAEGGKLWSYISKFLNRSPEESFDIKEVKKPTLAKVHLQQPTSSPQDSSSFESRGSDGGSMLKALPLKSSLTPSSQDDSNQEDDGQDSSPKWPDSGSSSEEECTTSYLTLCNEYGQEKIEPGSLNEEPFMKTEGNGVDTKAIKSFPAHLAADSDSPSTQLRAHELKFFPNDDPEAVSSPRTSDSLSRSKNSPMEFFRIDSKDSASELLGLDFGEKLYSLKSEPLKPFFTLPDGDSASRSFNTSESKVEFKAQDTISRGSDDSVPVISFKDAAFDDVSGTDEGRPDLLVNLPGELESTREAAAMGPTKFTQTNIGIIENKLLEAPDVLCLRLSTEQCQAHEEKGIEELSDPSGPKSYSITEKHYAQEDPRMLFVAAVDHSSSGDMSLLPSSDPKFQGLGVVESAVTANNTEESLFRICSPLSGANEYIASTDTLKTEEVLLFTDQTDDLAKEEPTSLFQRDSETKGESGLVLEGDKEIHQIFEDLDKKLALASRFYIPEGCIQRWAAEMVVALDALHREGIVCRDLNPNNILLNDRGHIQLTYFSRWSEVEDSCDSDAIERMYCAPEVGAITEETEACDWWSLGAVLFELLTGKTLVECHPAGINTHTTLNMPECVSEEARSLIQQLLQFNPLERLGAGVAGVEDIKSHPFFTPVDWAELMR

[6] = target: protein kinases (human kinome) (Homo sapiens, UniProt Q52WX2); conditions: for logFC: SBK1 (Q52WX2)
[7] = target: protein kinases (human kinome) (Homo sapiens, UniProt O60307); conditions: experiment wp107
Sequence of protein kinases (human kinome) (Homo sapiens, UniProt O60307) (O60307 whole entry): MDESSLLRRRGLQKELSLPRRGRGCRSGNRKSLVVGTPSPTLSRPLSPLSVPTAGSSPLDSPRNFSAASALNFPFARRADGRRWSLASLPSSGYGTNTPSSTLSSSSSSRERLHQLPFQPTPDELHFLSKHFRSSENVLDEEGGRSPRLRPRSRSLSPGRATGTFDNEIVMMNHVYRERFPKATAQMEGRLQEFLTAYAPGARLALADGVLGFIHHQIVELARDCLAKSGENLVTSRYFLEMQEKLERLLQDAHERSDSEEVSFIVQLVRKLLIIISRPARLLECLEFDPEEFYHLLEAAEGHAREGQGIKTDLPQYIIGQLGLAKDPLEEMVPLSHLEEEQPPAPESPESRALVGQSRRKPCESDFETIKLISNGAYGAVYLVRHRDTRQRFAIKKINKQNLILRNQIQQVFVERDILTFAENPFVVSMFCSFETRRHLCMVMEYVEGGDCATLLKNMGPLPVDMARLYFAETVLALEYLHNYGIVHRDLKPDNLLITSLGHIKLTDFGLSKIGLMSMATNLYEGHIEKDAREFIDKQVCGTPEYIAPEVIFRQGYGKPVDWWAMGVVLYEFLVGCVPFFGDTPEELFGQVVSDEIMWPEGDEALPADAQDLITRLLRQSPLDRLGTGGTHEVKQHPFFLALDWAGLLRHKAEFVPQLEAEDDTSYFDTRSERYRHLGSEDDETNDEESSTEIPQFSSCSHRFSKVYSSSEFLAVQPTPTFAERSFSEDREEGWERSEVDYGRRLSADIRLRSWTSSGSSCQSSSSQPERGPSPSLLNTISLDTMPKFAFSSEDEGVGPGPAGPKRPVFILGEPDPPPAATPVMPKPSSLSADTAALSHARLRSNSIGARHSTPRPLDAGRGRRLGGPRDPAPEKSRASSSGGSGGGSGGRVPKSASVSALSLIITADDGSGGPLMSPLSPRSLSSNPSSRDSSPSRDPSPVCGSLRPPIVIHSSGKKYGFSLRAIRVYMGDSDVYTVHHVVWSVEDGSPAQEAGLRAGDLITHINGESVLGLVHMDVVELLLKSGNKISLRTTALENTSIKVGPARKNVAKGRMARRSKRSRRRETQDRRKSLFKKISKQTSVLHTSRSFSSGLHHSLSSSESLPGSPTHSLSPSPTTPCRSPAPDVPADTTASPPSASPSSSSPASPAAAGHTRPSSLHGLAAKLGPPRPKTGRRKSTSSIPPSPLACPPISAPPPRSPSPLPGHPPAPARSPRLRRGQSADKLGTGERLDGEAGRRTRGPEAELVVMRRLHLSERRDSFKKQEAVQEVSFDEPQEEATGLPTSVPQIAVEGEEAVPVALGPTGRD

Sequence of protein kinases (human kinome) (Homo sapiens, UniProt Q52WX2) (Q52WX2 whole entry): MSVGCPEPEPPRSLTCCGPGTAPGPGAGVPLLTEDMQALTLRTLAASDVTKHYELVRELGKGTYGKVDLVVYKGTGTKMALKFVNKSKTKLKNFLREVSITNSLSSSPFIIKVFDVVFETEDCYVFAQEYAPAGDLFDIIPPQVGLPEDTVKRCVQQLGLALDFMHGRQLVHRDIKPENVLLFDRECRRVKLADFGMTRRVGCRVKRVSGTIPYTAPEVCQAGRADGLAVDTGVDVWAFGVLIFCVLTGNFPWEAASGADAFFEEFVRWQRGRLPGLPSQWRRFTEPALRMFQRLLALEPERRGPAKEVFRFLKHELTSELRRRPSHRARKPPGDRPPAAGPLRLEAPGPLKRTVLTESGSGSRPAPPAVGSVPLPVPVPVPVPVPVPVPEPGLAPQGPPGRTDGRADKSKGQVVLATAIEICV
Sequence of protein kinases (human kinome) (Homo sapiens, UniProt P45983) (P45983 whole entry): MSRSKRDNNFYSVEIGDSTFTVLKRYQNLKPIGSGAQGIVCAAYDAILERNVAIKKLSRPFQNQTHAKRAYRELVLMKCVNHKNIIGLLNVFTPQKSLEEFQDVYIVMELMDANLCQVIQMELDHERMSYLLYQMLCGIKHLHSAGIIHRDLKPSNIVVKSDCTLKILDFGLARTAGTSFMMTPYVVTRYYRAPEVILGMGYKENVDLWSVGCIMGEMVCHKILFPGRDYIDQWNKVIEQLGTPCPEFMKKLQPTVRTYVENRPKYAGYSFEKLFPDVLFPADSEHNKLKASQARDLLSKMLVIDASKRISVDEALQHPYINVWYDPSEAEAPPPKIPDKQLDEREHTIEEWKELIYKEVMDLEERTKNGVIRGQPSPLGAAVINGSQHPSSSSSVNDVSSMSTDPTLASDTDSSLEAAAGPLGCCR
Sequence of protein kinases (human kinome) (Homo sapiens, UniProt Q8TEA7) (Q8TEA7 whole entry): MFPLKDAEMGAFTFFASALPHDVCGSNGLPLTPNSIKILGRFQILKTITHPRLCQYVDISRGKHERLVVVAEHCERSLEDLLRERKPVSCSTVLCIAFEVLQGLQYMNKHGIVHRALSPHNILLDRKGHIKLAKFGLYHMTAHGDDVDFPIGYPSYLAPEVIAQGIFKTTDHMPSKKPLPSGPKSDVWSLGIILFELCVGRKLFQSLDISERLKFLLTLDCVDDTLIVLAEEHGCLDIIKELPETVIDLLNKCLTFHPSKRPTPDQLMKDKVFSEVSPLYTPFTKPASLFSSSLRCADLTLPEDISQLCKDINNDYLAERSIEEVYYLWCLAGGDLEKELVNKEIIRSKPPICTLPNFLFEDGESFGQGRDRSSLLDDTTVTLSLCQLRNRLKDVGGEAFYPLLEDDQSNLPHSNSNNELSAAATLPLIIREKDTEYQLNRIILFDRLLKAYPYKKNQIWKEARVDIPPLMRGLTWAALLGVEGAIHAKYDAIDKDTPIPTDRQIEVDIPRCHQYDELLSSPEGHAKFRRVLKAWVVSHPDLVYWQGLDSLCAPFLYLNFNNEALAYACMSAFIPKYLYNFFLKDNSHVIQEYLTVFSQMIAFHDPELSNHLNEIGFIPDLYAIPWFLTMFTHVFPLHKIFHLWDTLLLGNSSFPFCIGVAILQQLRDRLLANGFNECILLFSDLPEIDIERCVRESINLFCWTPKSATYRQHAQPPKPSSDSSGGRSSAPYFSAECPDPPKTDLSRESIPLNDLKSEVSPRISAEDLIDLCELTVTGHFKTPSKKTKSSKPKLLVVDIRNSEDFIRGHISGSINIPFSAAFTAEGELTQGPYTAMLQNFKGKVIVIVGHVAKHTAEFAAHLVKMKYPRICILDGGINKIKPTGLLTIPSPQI
Sequence of protein kinases (human kinome) (Homo sapiens, UniProt P51957) (P51957 whole entry): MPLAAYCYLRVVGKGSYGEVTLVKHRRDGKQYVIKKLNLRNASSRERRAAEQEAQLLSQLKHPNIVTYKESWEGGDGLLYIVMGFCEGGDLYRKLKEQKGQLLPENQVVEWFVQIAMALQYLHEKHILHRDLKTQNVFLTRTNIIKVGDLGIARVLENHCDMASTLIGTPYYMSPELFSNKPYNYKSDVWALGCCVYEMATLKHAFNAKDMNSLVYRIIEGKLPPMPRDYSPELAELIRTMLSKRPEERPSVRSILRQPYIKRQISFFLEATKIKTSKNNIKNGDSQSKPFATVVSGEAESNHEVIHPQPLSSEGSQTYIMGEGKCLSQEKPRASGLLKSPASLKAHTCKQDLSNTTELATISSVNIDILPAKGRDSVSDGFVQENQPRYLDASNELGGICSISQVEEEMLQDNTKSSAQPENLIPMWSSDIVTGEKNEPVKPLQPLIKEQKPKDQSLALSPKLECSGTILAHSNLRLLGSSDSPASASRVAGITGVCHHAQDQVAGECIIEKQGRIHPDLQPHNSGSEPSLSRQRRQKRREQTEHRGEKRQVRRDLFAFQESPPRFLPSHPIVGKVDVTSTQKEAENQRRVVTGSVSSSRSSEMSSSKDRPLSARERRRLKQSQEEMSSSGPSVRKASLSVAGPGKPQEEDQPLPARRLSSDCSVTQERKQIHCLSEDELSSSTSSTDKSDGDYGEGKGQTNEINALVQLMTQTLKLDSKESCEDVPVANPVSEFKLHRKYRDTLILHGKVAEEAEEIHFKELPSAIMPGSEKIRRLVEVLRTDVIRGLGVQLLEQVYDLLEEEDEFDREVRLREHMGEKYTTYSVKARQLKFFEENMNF
Sequence of protein kinases (human kinome) (Homo sapiens, UniProt Q8TF76) (Q8TF76 whole entry): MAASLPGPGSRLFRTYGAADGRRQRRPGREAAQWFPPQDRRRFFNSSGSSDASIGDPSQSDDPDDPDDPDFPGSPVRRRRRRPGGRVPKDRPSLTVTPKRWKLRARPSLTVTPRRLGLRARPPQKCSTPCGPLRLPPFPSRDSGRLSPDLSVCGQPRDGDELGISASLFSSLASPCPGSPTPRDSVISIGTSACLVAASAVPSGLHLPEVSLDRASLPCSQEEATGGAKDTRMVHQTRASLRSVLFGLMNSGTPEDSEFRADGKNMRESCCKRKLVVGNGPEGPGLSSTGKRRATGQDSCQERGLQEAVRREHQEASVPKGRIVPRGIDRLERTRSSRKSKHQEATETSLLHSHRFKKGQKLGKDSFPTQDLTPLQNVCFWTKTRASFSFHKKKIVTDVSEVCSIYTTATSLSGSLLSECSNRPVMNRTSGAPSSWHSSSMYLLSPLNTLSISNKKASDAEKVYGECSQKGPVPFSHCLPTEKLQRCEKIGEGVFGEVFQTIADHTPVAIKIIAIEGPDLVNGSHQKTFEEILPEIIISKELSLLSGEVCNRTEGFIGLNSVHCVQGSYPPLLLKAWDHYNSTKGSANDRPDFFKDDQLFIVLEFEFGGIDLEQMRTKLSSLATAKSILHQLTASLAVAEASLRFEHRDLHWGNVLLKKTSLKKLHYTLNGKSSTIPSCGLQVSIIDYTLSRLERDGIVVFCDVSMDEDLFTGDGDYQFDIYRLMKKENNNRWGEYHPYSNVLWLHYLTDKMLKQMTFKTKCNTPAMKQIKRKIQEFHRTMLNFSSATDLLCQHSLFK

Q: For `CC(C)S(=O)(=O)c1ccccc1Nc1nc(Nc2ccc(N3CCN(CCOCCOCCNC(=O)CNc4cccc5c4C(=O)N(C4CCC(=O)NC4=O)C5=O)CC3)cc2)ncc1Cl` (stereo not shown) [TL12.186], which “logFC HASPIN (Q8TF76-1)” value ([1]; direction of change down) is on record?
A: −0.368

Q: What about the “logFC HASPIN” value ([1]; protein HASPIN (QSTF76-1), down) of the same compound?
A: −0.368

Q: How did the “logFC NEK4 (P51957)” value ([2]; direction of change down) turn out when `Cc1cc(Nc2ncc(Br)c(Nc3cccc(F)c3C(N)=O)n2)ccc1S(=O)(=O)NCCOCCOCCOCCOCCNc1cccc2c1C(=O)N(C1CCC(=O)NC1=O)C2=O` (stereo not shown) [TMX.02.174] was run?
A: −0.9508

Q: What about the “logFC NEK4” value ([2]; protein NEK4 (P51957), down) of the same compound?
A: −0.9508

Q: Which results are given for `Cc1ccc(NC(=O)c2cccc(C(F)(F)F)c2)cc1N1Cc2cnc(Nc3ccc(N4CCN(Cc5cn(CCCCCOc6cccc7c6C(=O)N(C6CCC(=O)NC6=O)C7=O)nn5)CC4)nc3)nc2N(C)C1=O` (stereo not shown) [DB0646, N-(3-(7-((6-(4-((1-(5-((2-(2,6-Dioxopiperidin-3-yl)-1,3-dioxoisoindolin-4-yl)oxy)pentyl)-1H-1,2,3-triazol-4-yl)methyl)piperazin-1-v)pyridin-3-yl)amino)-1-methyl-2-oxo-1,4-dihydropyrimido[4,5-d]pyrimidin-3(2H)-yl)-4-methylphenyl)-3-(trifluoromethyl)benzamide]?
A: logFC MAPK8 (P45983) ([3]; direction down): −0.8433; logFC MAPK8 (P45983) ([3]; direction of change down): −0.8433; logFC MAPK8 (P45983-1) ([3]; Experiment wp172, direction down): −0.376; logFC MAPK8 (P45983-1) ([3]; experiment wp172, direction of change down): −0.376

Q: What does the source list for `C=CCn1c(=O)c2cnc(Nc3ccc(N4CCN(CCCNc5cccc6c5C(=O)N(C5CCC(=O)NC5=O)C6=O)CC4)cc3)nc2n1-c1cccc(C(C)(C)O)n1` (stereo not shown) [ZNL.02.096]?
A: logFC TBCK (Q8TEA7) ([4]; direction of change down): −0.3334; logFC TBCK ([4]; protein TBCK (QSTEA7), down): −0.3334

Q: How did the “logFC RPS6KC1 (Q96S38)” value ([5]; Experiment wp105) turn out when `CC(C)S(=O)(=O)c1ccccc1Nc1nc(Nc2ccc(N3CCN(CCOCCNC(=O)CNc4cccc5c4C(=O)N(C4CCC(=O)NC4=O)C5=O)CC3)cc2)ncc1Cl` (stereo not shown) [SK.3.91] was run?
A: −0.3327

Q: What about the logFC ([5]; experiment wp105) of the same compound?
A: −0.3327

Q: And the logFC ([5]; experiment wp107)?
A: −0.3623

Q: What about the “logFC RPS6KC1 (Q96S38)” value ([5]; experiment wp107) of the same compound?
A: −0.3623

Q: What about the “logFC of SBK1 (Q52WVX2)” value ([6]; Experiment wp107) of the same compound?
A: −0.921

Q: And the logFC ([6]; experiment wp107)?
A: −0.921

Q: And the logFC ([6]; experiment wp133, 2 hr)?
A: −0.6852

Q: And the logFC ([6]; experiment wp133, 4 hr)?
A: −0.9029

Q: What about the “logFC of SBK1 (Q52WX2)” value ([6]; experiment wp133, 2 hr) of the same compound?
A: −0.6852

Q: And the “logFC of SBK1 (Q52WX2)” value ([6]; experiment wp133, 4 hr)?
A: −0.9029

Q: What about the “logFC MAST3 (O60307)” value ([7]; direction of change down) of the same compound?
A: −0.4984

Q: And the “logFC MAST3” value ([7]; protein MAST3 (O60307), down)?
A: −0.4984
